Assay results from ChEMBL document CHEMBL1130859, “Inhibitors of the bacterial cell wall biosynthesis enzyme MurD” (Bioorg Med Chem Lett, 1998).

assay: Compound was tested for inhibition against UDP-N-acetylmuramoyl-L-alanyl-D-glutamate synthetase isolated from Escherichia coli

IC50 | SMILES
4 nM | CC(=O)NC1C(OP(=O)(O)OP(=O)(O)OC[C@H]2OC(n3cc(I)c(=O)[nH]c3=O)[C@H](O)[C@@H]2O)OC(CO)C(O)C1O[C@H](C)C(=O)N[C@@H](C)P(=O)(O)CC(CCC(=O)O)C(=O)O (some centres not stated) [17]

assay: Compound was tested for inhibition against UDP-N-acetylmuramoyl-L-alanyl-D-glutamate synthetase; parameters: species or system Escherichia coli

IC50 | SMILES
29000 nM | CC(NC(=O)CCCCCOP(=O)(O)O)P(=O)(O)CC(CCC(=O)O)C(=O)O (configuration not stated)
680 nM | CC(NC(=O)CCCCCOP(=O)(O)OP(=O)(O)OC[C@H]1O[C@@H](n2ccc(=O)[nH]c2=O)[C@H](O)[C@@H]1O)P(=O)(O)CC(CCC(=O)O)C(=O)O (some centres not stated)
< 1 nM | CC(=O)NC1C(OP(=O)(O)OP(=O)(O)OC[C@H]2OC(n3ccc(=O)[nH]c3=O)[C@H](O)[C@@H]2O)OC(CO)C(O)C1O[C@H](C)C(=O)N[C@@H](C)P(=O)(O)CC(CCC(=O)O)C(=O)O (some centres not stated)

Second part, the molecule before the results:

SMILES | IC50
CC(=O)NC1C(O)OC(CO)C(O)C1O[C@H](C)C(=O)N[C@@H](C)P(=O)(O)CC(CCC(=O)O)C(=O)O (some centres not stated) | 782000 nM
CC(=O)NC1C(OP(=O)(O)O)OC2COC(c3ccccc3)OC2C1O[C@H](C)C(=O)N[C@@H](C)P(=O)(O)CC(CCC(=O)O)C(=O)O (some centres not stated) | 455 nM
CC(=O)NC1C(OP(=O)(O)O)OC(CO)C(O)C1O[C@H](C)C(=O)N[C@@H](C)P(=O)(O)CC(CCC(=O)O)C(=O)O (some centres not stated) | 20 nM
